Results on two compounds are retold here after patent publication US20210154190A1, “SHP2 INHIBITOR COMPOSITIONS AND METHODS FOR TREATING CANCER” (Revolution Medicines, Inc., priority 2018, published 2021).

Substitutions are numbered along the chain they refer to. “And” between values parts separate entries of the source, which are not always exact repeats. Identical values can stand only once. Like-named read-outs stand apart in the source and are kept apart here.

For one experiment, the target named is T1, human SHP2-FL wild type (Homo sapiens, UniProt Q06124).
T1 sequence (Q06124 1-593): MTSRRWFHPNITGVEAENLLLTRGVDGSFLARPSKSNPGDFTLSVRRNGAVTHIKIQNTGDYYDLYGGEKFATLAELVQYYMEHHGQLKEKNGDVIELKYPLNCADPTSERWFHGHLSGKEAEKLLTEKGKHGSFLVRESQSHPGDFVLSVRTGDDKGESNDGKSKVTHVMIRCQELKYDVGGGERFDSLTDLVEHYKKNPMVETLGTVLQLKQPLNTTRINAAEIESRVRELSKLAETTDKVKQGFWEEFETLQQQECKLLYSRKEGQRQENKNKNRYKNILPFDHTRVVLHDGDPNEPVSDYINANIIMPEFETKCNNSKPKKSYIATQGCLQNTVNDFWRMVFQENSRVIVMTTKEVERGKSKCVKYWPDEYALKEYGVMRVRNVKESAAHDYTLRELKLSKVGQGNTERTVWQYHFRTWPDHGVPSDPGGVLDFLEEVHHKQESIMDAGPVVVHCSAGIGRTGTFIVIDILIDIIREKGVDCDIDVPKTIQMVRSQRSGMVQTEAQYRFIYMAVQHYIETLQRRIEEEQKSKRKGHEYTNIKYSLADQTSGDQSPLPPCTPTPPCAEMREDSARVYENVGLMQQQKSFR
The experiment is described as follows: SHP2 allosteric inhibition assay (DiFMUP), wild type. The class given is biochemical. The protocol:
(§1) Full-length SHP2 is allosterically activated through binding of bis-tyrosyl-phorphorylated peptides to its Src Homology 2 (SH2) domains. The latter activation step leads to the release of the auto-inhibitory interface of SHP2, which in turn renders the SHP2 protein tyrosine phosphatase (PTP) active and available for substrate recognition and reaction catalysis. The catalytic activity of SHP2 was monitored using the surrogate substrate DiFMUP in a prompt fluorescence assay format.
(§2) […] […] 50 μl stop solution (0.1 mM sodium pervanadate) was added to each well, the plate was shaken briefly to mix, and read in endpoint mode on a SpectraMax M5 plate reader (Molecular Devices) using excitation and emission wavelengths of 340 nm and 450 nm. Data was imported into GraphPad Prism. Plots of fluorescence intensity vs. log Molar [compound] were created and modeled with a 3-parameter sigmoidal concentration response equation in order to estimate IC50.
(§3) Reactions were then allowed to proceed for 30 minutes and stopped by the addition of a phosphatase inhibitor, sodium pervanadate. De-phosphorylation of DiFMUP results in production of a fluorescent product. Product fluorescence was determined and plotted as a function of compound concentration in order to determine the IC50 for each compound on each mutant using a four parameter sigmoidal dose response function in Prism (GraphPad).
(§4) NsCs mimics the role of the cytosolic domain of a protein tyrosine kinase in this model system.

For the next experiment, the target named is T2, human SHP2-FL D61G (Homo sapiens, UniProt Q06124, D61G).
T2 sequence (Q06124 1-593 D61G): T1 sequence (Q06124 1-593) with D61G
In words: SHP2 allosteric inhibition assay (DiFMUP), D61G. The experiment is classed as biochemical. To be noted: for IC50: SHP2 D61G. The protocol: as §1, §2, §3, §4

The next experiment deals with T3, SHP2 E69K (Homo sapiens, UniProt Q06124, E69K).
T3 construct: expressed in transfected cells; host or cells: Flp-In T-REx-293 (T-REx-293-SHP2)
The experiment is described as follows: EGF-induced pERK AlphaLISA in T-REx-293-SHP2 cells, E69K. The experiment is classed as cell-based. The note with it: Variant E69K. How it is done: An experimental system was creating to test the activity of SHP2 mutants on an isogenic background (FIG. 6). The Flp-In T-REx-293 cell line was obtained from Gibco® and cultivated in high glucose DMEM™ containing 2 mM L-glutamine (Hyclone®), supplemented with 10% FBS (Hyclone®), 1% penicillin/streptomycin (Gibco®), 100 μg/mL Zeocin™ (Gibco®), and 15 μg/mL blasticidin (Gibco®) in a humidified cell culture incubator at 37° C., 5% CO2.
Wild type or mutant SHP2 variants were synthesized and subcloned into the pcDNA5/FRT/TO vector (ThermoFisher). Plasmids were co-transfected with the pOG44 Flp recombinase expression plasmid (ThermoFisher®) into Flp-In T-REx-293 cells using X-tremegene 9 DNA transfection reagent (Sigma®), according to the manufacturer's instructions. […]
For the final 5 minutes of drug treatment, cells were stimulated with 50 ng/mL Epidermal Growth Factor (Sigma®). […] Samples were read using an EnVision Multilabel Plate Reader (Perkin Elmer®) using standard AlphaLISA settings. Assay data was plotted and EC50 values were determined using four-parameter concentration-response model in GraphPad Prism 7. […]

As to `Nc1nc(N2CCC3(CCC[C@H]3N)CC2)cnc1Sc1ccnc(Cl)c1Cl` [Compound 1], the IC50 is 2.62 nM and 2.69 nM and 2.12 nM and 2.37 nM on human SHP2-FL wild type (Wild-type SHP2, 0.5 μM NsCs peptide (Activated), read-out: IC50); 2.63 nM and 2.69 nM and 2.14 nM and 2.34 nM at human SHP2-FL wild type (Wild-type SHP2, 0.5 μM NsCs peptide (Activated), read-out: pIC50 (converted)); 2.01 nM and 2.43 nM and 1.36 nM and 2.24 nM on human SHP2-FL wild type (Wild-type SHP2, No Peptide Control (Non-Activated), read-out: IC50); 2 nM and 2.45 nM and 1.35 nM and 2.24 nM on human SHP2-FL wild type (Wild-type SHP2, No Peptide Control (Non-Activated), read-out: pIC50 (converted)); 185 nM and 219 nM and 198 nM and 191 nM on human SHP2-FL D61G (0.5 μM NsCs peptide (Activated), read-out: IC50); 186 nM and 219 nM and 200 nM and 191 nM at human SHP2-FL D61G (0.5 μM NsCs peptide (Activated), read-out: pIC50 (converted)). Also, the IC50 at human SHP2-FL D61G (No Peptide Control (Non-Activated), read-out: IC50) is 1.85 nM and 2.45 nM and 1.6 nM and 1.81 nM; on human SHP2-FL D61G (No Peptide Control (Non-Activated), read-out: pIC50 (converted)), 1.86 nM and 2.45 nM and 1.58 nM and 1.82 nM.

Turning to `Cc1nc(N2CCC3(CC2)CO[C@@H](C)[C@H]3N)c(CO)nc1-c1cccc(Cl)c1Cl` [Compound B], the Biochemical sensitivity result on human SHP2-FL wild type (Variant WT) and at human SHP2-FL D61G (Variant D61G) was “yes (Sensitive if IC50 < 2000 nM)” throughout. Further, at SHP2 E69K, the Cellular sensitivity entry is listed as “yes (Sensitive if IC50 < 2000 nM)”.
